Measurements from publication PMC9963659, “Novel 2-Thiouracil-5-Sulfonamide Derivatives: Design, Synthesis, Molecular Docking, and Biological Evaluation as Antioxidants with 15-LOX Inhibition” (Molecules, 2023).

Columns and labels:
[1] = DPPH radical scavenging assay; type: biochemical; details: mean ± SEM of three experiments
Protocol: The antioxidant potential of all target compounds (3–9) was determined using DPPH radical scavenging assay in comparison with ascorbic acid (AA) as the control treatment.
The mechanism of antioxidants as DPPH radical scavengers is based on their hydrogen-donation ability as hydrogen atoms or an electron transfer from the compound to the DPPH to form DPPH-H. The results of DPPH reduction are presented in Table 2, Figure 7.
The DPPH scavenging activity of all novel synthesized compounds (3–9) was measured as previously described (see Supplementary Materials).
1-Biological Evaluation Details: a-In-vitro Assays for biological antioxidant Activity
- DPPH scavenging method.
A 96-well plate was filled with 100 µL of the investigated compounds at various concentrations (12.5, 25, 50, 100, and 200 µg/mL ). The plate was then incubated at room temperature for 30 min while being protected from light by adding 100 µL of 100µM DPPH methanolic solution to each well. At a λ517 nm. the solution's absorbance was measured.
The positive control was ascorbic acid, and the negative control was DMSO. According to the following equation, the percentage of DPPH scavenging activity was determined:
% of DPPH scavenging = [(A control -A sample) / A control] x100. where A control is the absorbance of the control reaction (with all reagents except the test compound), and A sample is the absorbance of the test sample. Linear regression analysis was performed to calculate drug concentration showing 50% free radical inhibition activity (IC50). All tests were performed in triplicates. […]

[2] = Hydrogen peroxide scavenging assay; type: biochemical; details: mean ± SEM of three experiments
Protocol: H2O2 assay is used to estimate the scavenging power of the target compounds (4–9) to H2O2.
The hydrogen peroxide (H2O2) scavenging activity of all novel synthesized compounds 3–9 was measured as previously reported (see Supplementary Materials).
1-Biological Evaluation Details: a-In-vitro Assays for biological antioxidant Activity […]
Linear regression analysis was performed to calculate drug concentration showing 50% free radical inhibition activity (IC50). All tests were performed in triplicates.
-Scavenging of hydrogen peroxide
In this method, the decay or loss of hydrogen peroxide can be quantified spectrophotometrically at 230 nm when a scavenger is incubated with it. The procedure was applied with a few changes. In phosphate buffered saline, hydrogen […]
peroxide (20 mM) solution was prepared in phosphate buffered saline (PBS, pH 7.4). In order to make different concentrations of 1 ml of the tested substances (3–9) or standards in methanol, 2 ml of hydrogen peroxide solution in PBS was added. After 10 minutes, the absorbance of H2O2 was measured at 230 nm in comparison to an ascorbic acid (AA) reference solution that contained phosphate buffer but no H2O2.
% of H2O2 scavenging = [(A control -A sample) / A control] x100. […]

[3] = Lipid peroxidation assay (FeCl2/H2O2-stimulated linoleic acid peroxidation); type: biochemical; details: mean ± SEM of three experiments
[4] = target: T1, Soybean 15-LOX enzyme (Glycine max, UniProt P08170); assay: In vitro 15-lipoxygenase inhibition (Cayman Lipoxygenase Inhibitor Screening Assay Kit); type: biochemical; details: Soybean 15-LOX, arachidonic acid substrate; mean ± SEM of three experiments
T1 construct: purchased Cayman Chemical 760700
T1 sequence (P08170 1-839): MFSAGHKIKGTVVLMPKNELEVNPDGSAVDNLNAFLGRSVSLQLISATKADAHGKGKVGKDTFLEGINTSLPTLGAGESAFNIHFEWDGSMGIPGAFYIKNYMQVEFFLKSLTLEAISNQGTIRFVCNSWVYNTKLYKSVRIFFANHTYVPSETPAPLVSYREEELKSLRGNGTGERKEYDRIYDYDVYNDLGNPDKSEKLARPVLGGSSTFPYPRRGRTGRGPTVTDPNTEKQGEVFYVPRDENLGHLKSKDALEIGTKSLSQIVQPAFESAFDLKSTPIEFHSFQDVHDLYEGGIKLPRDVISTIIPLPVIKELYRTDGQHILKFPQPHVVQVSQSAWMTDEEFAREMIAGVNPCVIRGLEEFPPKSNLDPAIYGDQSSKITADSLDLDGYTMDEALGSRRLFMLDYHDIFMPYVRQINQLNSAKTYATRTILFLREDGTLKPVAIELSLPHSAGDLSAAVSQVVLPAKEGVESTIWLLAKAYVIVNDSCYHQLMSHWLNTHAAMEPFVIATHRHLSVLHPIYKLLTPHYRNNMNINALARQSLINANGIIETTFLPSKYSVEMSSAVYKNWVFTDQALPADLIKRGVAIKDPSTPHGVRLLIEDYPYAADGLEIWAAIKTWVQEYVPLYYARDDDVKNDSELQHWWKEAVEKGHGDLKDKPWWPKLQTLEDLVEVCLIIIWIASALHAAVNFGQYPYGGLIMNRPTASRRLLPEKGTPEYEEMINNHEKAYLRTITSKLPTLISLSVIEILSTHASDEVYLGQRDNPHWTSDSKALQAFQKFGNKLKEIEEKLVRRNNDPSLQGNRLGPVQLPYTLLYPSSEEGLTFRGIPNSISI
Protocol: 90 µL of 15-LOX was pipetted into a 96-well plate quickly. The test chemical was then dissolved in DMSO in 10 µL portions at concentrations of 2.5 µM, 5.0 µM, and 10 µM and added to each well. Arachidonic acid, a 110 µL substrate, was added to start the reaction, and the plate was shaken for at least five minutes. In order to interrupt enzyme catalysis and advance the reaction, 100 µL of chromogen was added to each well and made in accordance with the manufacturer’s instructions. In blank wells, 100 µL of assay buffer (0.1 M Tris-HCl, pH 7.4) was utilized. […] The solution’s absorbance was determined at λ 490–500 nm. The percentage inhibition was calculated according to the following equation:% inhibition = [(IA − Ainhibitor sample)/IA] × 100(1) where (IA) is the 100% initial activity and (Ainhibitor sample) is the absorbance of the test sample. A dose-response curve was plotted between % inhibition and the drug concentration. The non-linear dose-response curve was used for calculating drug concentration showing 50% enzyme inhibition.

SMILES | DPPH IC50 [1] | H2O2 IC50 [2] | Lipid Peroxidation IC50 [3] | melting point | IC50 [4]
O=C(/C=C/c1cccc(Cl)c1)c1cccc(NS(=O)(=O)c2c[nH]c(=S)[nH]c2=O)c1 [Compound 4b, N-{3-[(2E)-3-(3-chlorophenyl)prop-2-enoyl]phenyl}-4-oxo-2-thioxo-1,2,3,4-tetra hydropyrimidine-5-sulfonamide] | 44.3 ± 1.67 µg/mL | 95.0 ± 1.40 µg/mL | >100 µg/mL | 283 to 285 °C | –
O=C(C=Cc1cccc([N+](=O)[O-])c1)c1cccc(NS(=O)(=O)c2c[nH]c(=S)[nH]c2=O)c1 [Compound 4a, N-{3-[(2E)-3-(3-nitrophenyl)prop-2-enoyl]phenyl}-4-oxo-2-thioxo-1,2,3,4-tetrahydro pyrimidine-5-sulfonamide] | 50.5 ± 0.79 µg/mL | >100 µg/mL | >100 µg/mL | 240 to 242 °C | –
O=C(/C=C/c1cccc(F)c1)c1cccc(NS(=O)(=O)c2c[nH]c(=S)[nH]c2=O)c1 [Compound 4c, N-{3-[(2E)-3-(3-fluorophenyl)prop-2-enoyl]phenyl}-4-oxo-2-thioxo-1,2,3,4-tetra hydropyrimidine-5-sulfonamide] | 43.0 ± 0.50 µg/mL | >100 µg/mL | >100 µg/mL | 270 to 272 °C | –
Cc1cccc(/C=C/C(=O)c2cccc(NS(=O)(=O)c3c[nH]c(=S)[nH]c3=O)c2)c1 [Compound 4d, N-{3-[(2E)-3-(3-methylphenyl)prop-2-enoyl]phenyl}-4-oxo-2-thioxo-1,2,3,4-tetra hydropyrimidine-5-sulfonamide] | 40.0 ± 1.70 µg/mL | 80.0 ± 0.70 µg/mL | >100 µg/mL | 287 to 289 °C | –
O=C1O[C@H]([C@@H](O)CO)C(O)=C1O [Ascorbic acid, reference compound] | 12.80 ± 0.90 µg/mL | 23.0 ± 1.37 µg/mL | 36.0 ± 1.30 µg/mL | – | –
CC(=O)c1cccc(NS(=O)(=O)c2c[nH]c(=S)[nH]c2=O)c1 [Compound 3, N-(3-Acetylphenyl)-4-oxo-2-thioxo-1,2,3,4-tetrahydropyrimidine-5-sulfonamide] | 80.0 ± 0.70 µg/mL | >100 µg/mL | >100 µg/mL | 318 to 320 °C | –
O=C(CBr)c1cccc(NS(=O)(=O)c2c[nH]c(=S)[nH]c2=O)c1 [Compound 8, N-[3-(bromoacetyl)phenyl]-4-oxo-2-thioxo-1,2,3,4-tetrahydropyrimidine-5-sulfonamide] | 70.27 ± 1.17 µg/mL | >100 µg/mL | >100 µg/mL | 305 to 307 °C | –

Other lines, results leading:

DPPH IC50 [1] | H2O2 IC50 [2] | Lipid Peroxidation IC50 [3] | melting point | IC50 [4] | SMILES
25.5 ± 1.16 µg/mL | 26.0 ± 1.28 µg/mL | 37.6 ± 1.2 µg/mL | 251 to 253 °C | 6.95 ± 0.07 µM | N#Cc1c(-c2cccc([N+](=O)[O-])c2)cc(-c2cccc(NS(=O)(=O)c3c[nH]c(=S)[nH]c3=O)c2)nc1N [Compound 7a, N-{3-[6-amino-5-cyano-4-(3-nitrophenyl)pyridine-2-yl]phenyl}-4-oxo-2-thioxo-1,2,3,4-tetrahydropyrimidine-5-sulfonamides]
9.0 ± 1.10 µg/mL | 45.05 ± 1.34 µg/mL | 82.0 ± 1.40 µg/mL | 307 to 309 °C | 5.5 ± 0.02 µM | COc1ccc(NC(=S)NN=C(C)c2cccc(NS(=O)(=O)c3c[nH]c(=S)[nH]c3=O)c2)cc1 [Compound 5c, N-{3-[(1E)-N-(4-methoxycarbamothionyl)ethanhydrazonoyl]phenyl}-4-oxo-2-thioxo-1,2,3,4-tetrahydropyrimidine-5-sulfonamides]
14.50 ± 0.72 µg/mL | 41.0 ± 1.53 µg/mL | 90.0 ± 1.45 µg/mL | 305 to 307 °C | 5.79 ± 0.01 µM | CNC(=S)NN=C(C)c1cccc(NS(=O)(=O)c2c[nH]c(=S)[nH]c2=O)c1 [Compound 5a, N-{3-[(1E)-N-(methylcarbamothionyl)ethanhydrazonoyl]phenyl}-4-oxo-2-thioxo-1,2,3,4-tetrahydropyrimidine-5-sulfonamide]
22.0 ± 1.18 µg/mL | 30.0 ± 1.21 µg/mL | 40.0 ± 1.63 µg/mL | 272 to 274 °C | 7.6 ± 0.05 µM | N#Cc1c(-c2cccc(Cl)c2)cc(-c2cccc(NS(=O)(=O)c3c[nH]c(=S)[nH]c3=O)c2)[nH]c1=O [Compound 6b, N-{3-[5-cyano-4-(3-chlorophenyl)-6-oxo-1,6-dihydropyridin-2-yl]phenyl}-4-oxo-2-thioxo-1,2,3,4-tetrahydropyrimidine-5-sulfonamide]
21.0 ± 0.5 µg/mL | 28.8 ± 1.05 µg/mL | 38.0 ± 1.42 µg/mL | 282 to 284 °C | 7.5 ± 0.04 µM | Cc1cccc(-c2cc(-c3cccc(NS(=O)(=O)c4c[nH]c(=S)[nH]c4=O)c3)[nH]c(=O)c2C#N)c1 [Compound 6d, N-{3-[5-cyano-4-(3-methylphenyl)-6-oxo-1,6-dihydropyridin-2-yl]phenyl}-4-oxo-2-thioxo-1,2,3,4-tetrahydropyrimidine-5-sulfonamide]
14.72 ± 1.11 µg/mL | 47.0 ± 1.38 µg/mL | 95.0 ± 1.42 µg/mL | 313 to 315 °C | 5.9 ± 0.06 µM | CC(=NNC(=S)Nc1ccc(F)cc1)c1cccc(NS(=O)(=O)c2c[nH]c(=S)[nH]c2=O)c1 [Compound 5d, N-{3-[(1E)-N-(4-fluorocarbamothionyl)ethanhydrazonoyl]phenyl}-4-oxo-2-thioxo-1,2,3,4-tetrahydropyrimidine-5-sulfonamides]
19.50 ± 1.06 µg/mL | 25.0 ± 1.35 µg/mL | 37.3 ± 1.3 µg/mL | 257 to 259 °C | 6.7 ± 0.01 µM | N#Cc1c(-c2cccc(Cl)c2)cc(-c2cccc(NS(=O)(=O)c3c[nH]c(=S)[nH]c3=O)c2)nc1N [Compound 7b, N-{3-[6-amino-5-cyano-4-(3-chlorophenyl)pyridine-2-yl]phenyl}-4-oxo-2-thioxo-1,2,3,4-tetrahydropyrimidine-5-sulfonamides]
